Like-named read-outs stand apart in the source and are kept apart here.
What was measured:
CYP2C9 [1] = assay: CYP induction in human hepatocytes; type: in vitro ADME
CYP2C19 [2] = settings: human hepatocytes
CYP3A4/5 = assay: CYP induction in human hepatocytes; type: in vitro ADME
CYP2B6 [3] = assay: CYP induction in human hepatocytes; type: in vitro ADME
CYP2C8 [4] = settings: human hepatocytes
CYP1A2 [5] = settings: human hepatocytes
[6] = tested on: Community-Acquired Bacterial Pneumonia (CABP); assay: Phase 3 CABP Study 2 (Example 4, no adjunctive macrolide); type: in vivo, human; settings: for Treatment Difference in clinical cure rate at TOC: versus ceftriaxone, CABP Study 2
Procedure: (§1) In both treatment groups of CABP Study 1, two doses of oral clarithromycin (500 mg q12h), were administered as adjunctive therapy starting on Study Day 1. No adjunctive macrolide therapy was used in CABP Study 2. Patients with new or progressive pulmonary infiltrate(s) on chest radiography and clinical signs and symptoms consistent with CABP with the need for hospitalization and IV therapy were enrolled in the studies. Treatment duration was 5 to 7 days. A switch to oral therapy was not allowed. The Modified Intent-to-Treat Efficacy (MITTE) population included all patients who received any amount of study drug according to their randomized treatment group and were in PORT (Pneumonia Outcomes Research Team) Risk Class III or IV.
(§2) The primary efficacy endpoint was the clinical response at the Test of Cure (TOC) visit in the co-primary CE and MITTE populations (Table 4).
The secondary objectives of the study were to evaluate the following: clinical response at end-of-therapy (EOT); the microbiological favorable outcome rate at TOC; the overall (clinical and radiographic) success rate at TOC; the clinical and microbiological response by pathogen at TOC; clinical relapse at late follow-up (LFU); microbiological reinfection/recurrence at LFU; and safety.
The following criteria were used for evaluation: The primary efficacy outcome measures were the per-subject clinical cure rate at test-of-cure (TOC) in the CE and MITTE Populations. Subjects were considered clinically cured at TOC if they had total resolution of all signs and symptoms of the baseline infection, or improvement of the infection such that no further antimicrobial therapy was necessary.
(§3) Non-inferiority was concluded if the lower limit of the 95% CI was higher than −10%.

[7] = Example 4
Procedure: The 600-mg dose of ceftaroline fosamil infused over 60 minutes was split into two infusions in order to maintain the blind. For subjects with moderate renal impairment (30 ml/min<CrCl≦50 ml/min), as estimated by the Cockroft-Gault formula, unblinded pharmacy staff or unblinded study staff could adjust the dose of ceftaroline fosamil to two consecutive 200 mg infusions and readjust dose to two 300 mg infusions when renal function improved (CrCl>50 mL/min). The duration of treatment was between 5 to 7 days.
(§4) All subjects who received any amount of study drug were included in the safety analysis. Safety measures included monitoring for adverse events (AE) up to TOC and serious adverse events (SAE) through LFU; recording vital signs, physical examination, electrocardiogram (ECG), and clinical laboratory findings (clinical chemistry, hematology, and urinalysis), at prespecified times throughout the study.

[8] = tested on: Haemophilus parainfluenzae; settings: ME patients with CABP
[9] = Example 5
Procedure: The 600-mg dose of ceftaroline fosamil infused over 60 minutes was split into two infusions in order to maintain the blind. For subjects with moderate renal impairment (30 mL/min<CrCl≦50 mL/min), as estimated by the Cockroft-Gault formula, unblinded pharmacy staff or unblinded study staff could adjust the dose of ceftaroline fosamil to two consecutive 200 mg infusions and readjust dose to two 300 mg infusions when renal function improved (CrCl>50 mL/min). The duration of treatment was between 5 to 7 days.
as §4

[10] = Pharmacokinetics of ceftaroline after IV infusion of ceftaroline fosamil in adults with normal renal function; set-up: species or system human; settings: in vivo
Text: The standard deviation is shown in brackets.

CYP3A4 = target: T1, CYP3A4 (Homo sapiens, UniProt P08684); assay: CYP inhibition in human liver microsomes; type: in vitro ADME
T1 construct: In vitro studies in human liver microsomes; from tissue; host or cells: human liver microsomes
T1 sequence (P08684 whole entry): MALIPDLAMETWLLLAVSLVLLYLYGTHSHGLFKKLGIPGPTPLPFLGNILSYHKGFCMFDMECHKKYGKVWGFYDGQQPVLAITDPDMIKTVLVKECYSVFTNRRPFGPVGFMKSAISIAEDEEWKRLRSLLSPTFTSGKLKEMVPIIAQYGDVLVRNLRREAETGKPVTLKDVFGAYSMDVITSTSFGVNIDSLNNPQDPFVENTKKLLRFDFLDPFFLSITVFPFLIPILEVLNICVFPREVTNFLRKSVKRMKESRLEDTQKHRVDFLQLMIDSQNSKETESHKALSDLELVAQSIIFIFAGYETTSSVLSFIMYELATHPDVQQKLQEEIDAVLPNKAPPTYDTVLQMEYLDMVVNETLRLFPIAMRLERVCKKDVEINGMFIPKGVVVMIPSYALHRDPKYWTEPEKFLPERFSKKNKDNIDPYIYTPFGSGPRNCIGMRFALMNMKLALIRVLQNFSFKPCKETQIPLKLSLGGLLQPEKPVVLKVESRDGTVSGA

CYP1A1 = target: T2, CYP1A1 (Homo sapiens, UniProt P04798); assay: CYP inhibition in human liver microsomes; type: in vitro ADME
T2 construct: In vitro studies in human liver microsomes; from tissue; host or cells: human liver microsomes
T2 sequence (P04798 whole entry): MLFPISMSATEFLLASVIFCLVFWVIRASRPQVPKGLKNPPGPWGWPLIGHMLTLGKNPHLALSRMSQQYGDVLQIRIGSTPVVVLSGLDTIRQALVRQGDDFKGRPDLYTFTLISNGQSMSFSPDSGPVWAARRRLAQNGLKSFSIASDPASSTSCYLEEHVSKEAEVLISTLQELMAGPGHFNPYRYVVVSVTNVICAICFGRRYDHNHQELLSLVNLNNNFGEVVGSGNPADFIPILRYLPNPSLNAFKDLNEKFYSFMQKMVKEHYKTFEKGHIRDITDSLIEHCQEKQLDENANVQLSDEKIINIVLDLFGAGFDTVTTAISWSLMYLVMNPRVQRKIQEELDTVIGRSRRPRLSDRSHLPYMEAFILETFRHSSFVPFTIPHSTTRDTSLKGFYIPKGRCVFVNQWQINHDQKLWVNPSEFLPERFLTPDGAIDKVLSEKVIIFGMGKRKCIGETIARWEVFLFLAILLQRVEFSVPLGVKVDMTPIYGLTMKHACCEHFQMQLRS

[11] = tested on: Community-Acquired Bacterial Pneumonia (CABP); assay: Two Phase 3 studies in CABP, integrated; type: in vivo, human; settings: versus ceftriaxone, integrated CABP studies
Procedure: as §1
The primary efficacy endpoint was the clinical response at the Test of Cure (TOC) visit in the co-primary CE and MITTE populations (Table 4). In a subgroup analysis (CE population), the comparative clinical cure rates between the ceftaroline group and the ceftriaxone group were not affected by age, gender, race, ethnicity, or weight.

[12] = tested on: Community-Acquired Bacterial Pneumonia (CABP); assay: Phase 3 CABP Study 1 (Example 5, adjunctive clarithromycin); type: in vivo, human; settings: versus ceftriaxone, CABP Study 1
Procedure: as §1, §2
The secondary objective of the study was to evaluate the following: the clinical response at end-of-therapy (EOT); the microbiological favorable outcome rate at TOC; the overall (clinical and radiographic) success rate at TOC; the clinical and microbiological response by pathogen at TOC; clinical relapse at late follow-up (LFU); microbiological reinfection/recurrence at LFU; and safety.
The primary efficacy outcome measures were the per-subject clinical cure rate at TOC in the CE and MITTE Populations. Subjects were considered clinically cured at TOC if they had total resolution of all signs and symptoms of the baseline infection, or improvement of the infection such that no further antimicrobial therapy was necessary.
as §3

CYP2C9 [13] = target: T3, CYP2C9 (Homo sapiens, UniProt P11712); assay: CYP inhibition in human liver microsomes; type: in vitro ADME
T3 construct: In vitro studies in human liver microsomes; from tissue; host or cells: human liver microsomes
T3 sequence (P11712 whole entry): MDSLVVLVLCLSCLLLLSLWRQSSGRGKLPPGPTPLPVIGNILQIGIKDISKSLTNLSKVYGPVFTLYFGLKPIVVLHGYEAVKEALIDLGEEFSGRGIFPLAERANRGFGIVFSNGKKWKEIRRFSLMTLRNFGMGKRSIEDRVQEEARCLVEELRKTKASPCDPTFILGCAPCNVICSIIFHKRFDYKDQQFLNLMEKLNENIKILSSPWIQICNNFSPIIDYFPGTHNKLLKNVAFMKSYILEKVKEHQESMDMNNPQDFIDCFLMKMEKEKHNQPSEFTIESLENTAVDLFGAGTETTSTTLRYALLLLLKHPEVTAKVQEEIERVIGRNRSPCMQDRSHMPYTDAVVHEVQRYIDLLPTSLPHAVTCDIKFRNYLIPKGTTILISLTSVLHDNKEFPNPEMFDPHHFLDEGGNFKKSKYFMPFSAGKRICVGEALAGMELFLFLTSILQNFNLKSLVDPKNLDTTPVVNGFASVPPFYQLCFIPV

CYP1A2 [14] = target: CYP1A2 (Homo sapiens, UniProt P05177); type: in vitro ADME; settings: human liver microsomes
Sequence of CYP1A2 (Homo sapiens, UniProt P05177) (P05177 whole entry): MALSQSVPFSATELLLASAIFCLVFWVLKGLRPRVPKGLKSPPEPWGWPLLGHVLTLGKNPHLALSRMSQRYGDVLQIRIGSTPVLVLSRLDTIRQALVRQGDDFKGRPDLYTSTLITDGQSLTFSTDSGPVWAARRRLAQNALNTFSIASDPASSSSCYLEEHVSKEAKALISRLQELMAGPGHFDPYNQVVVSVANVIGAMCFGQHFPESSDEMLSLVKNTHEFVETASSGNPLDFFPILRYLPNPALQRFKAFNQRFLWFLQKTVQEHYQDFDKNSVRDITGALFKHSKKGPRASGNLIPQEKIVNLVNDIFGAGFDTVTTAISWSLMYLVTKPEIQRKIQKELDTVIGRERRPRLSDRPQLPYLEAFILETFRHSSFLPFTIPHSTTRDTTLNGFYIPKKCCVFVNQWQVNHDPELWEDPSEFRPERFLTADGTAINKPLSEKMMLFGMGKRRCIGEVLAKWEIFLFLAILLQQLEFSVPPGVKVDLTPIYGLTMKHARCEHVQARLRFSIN

Aqueous solubility = type: physicochemical; settings: with L-arginine, depending on the molarity of the solution
Text: In further embodiments, the compositions may comprise L-arginine.

CYP2A6 = target: T4, CYP2A6 (Homo sapiens, UniProt P11509); assay: CYP inhibition in human liver microsomes; type: in vitro ADME
T4 construct: In vitro studies in human liver microsomes; from tissue; host or cells: human liver microsomes
T4 sequence (P11509 whole entry): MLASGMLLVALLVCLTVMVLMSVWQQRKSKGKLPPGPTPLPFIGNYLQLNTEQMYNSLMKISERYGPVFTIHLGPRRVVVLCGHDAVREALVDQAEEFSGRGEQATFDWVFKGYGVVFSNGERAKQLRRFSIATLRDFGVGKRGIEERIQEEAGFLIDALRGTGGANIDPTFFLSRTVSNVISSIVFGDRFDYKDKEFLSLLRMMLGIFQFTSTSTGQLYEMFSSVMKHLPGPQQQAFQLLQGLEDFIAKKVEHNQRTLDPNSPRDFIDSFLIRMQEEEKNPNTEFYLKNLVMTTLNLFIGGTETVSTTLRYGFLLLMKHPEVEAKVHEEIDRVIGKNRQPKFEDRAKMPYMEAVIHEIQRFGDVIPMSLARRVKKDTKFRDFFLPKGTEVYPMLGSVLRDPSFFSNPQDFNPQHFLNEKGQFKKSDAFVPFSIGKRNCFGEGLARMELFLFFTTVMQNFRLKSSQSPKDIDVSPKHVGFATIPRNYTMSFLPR

CYP2C19 [15] = target: T5, CYP2C19 (Homo sapiens, UniProt P33261); assay: CYP inhibition in human liver microsomes; type: in vitro ADME
T5 construct: In vitro studies in human liver microsomes; from tissue; host or cells: human liver microsomes
T5 sequence (P33261 whole entry): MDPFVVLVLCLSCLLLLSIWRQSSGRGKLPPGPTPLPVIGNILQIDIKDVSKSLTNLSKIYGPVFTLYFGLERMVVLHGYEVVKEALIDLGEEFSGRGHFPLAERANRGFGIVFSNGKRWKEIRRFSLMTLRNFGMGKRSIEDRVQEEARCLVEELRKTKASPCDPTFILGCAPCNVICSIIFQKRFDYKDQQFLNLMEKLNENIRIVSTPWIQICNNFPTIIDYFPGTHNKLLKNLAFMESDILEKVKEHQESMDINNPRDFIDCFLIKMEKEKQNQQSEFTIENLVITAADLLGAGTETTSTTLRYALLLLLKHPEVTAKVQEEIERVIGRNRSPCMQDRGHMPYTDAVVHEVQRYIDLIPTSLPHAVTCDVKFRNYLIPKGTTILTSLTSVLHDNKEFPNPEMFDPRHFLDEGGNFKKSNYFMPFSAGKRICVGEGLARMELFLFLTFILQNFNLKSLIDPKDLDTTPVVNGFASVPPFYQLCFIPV

CYP2E1 = target: T6, CYP2E1 (Homo sapiens, UniProt P05181); assay: CYP inhibition in human liver microsomes; type: in vitro ADME
T6 construct: In vitro studies in human liver microsomes; from tissue; host or cells: human liver microsomes
T6 sequence (P05181 whole entry): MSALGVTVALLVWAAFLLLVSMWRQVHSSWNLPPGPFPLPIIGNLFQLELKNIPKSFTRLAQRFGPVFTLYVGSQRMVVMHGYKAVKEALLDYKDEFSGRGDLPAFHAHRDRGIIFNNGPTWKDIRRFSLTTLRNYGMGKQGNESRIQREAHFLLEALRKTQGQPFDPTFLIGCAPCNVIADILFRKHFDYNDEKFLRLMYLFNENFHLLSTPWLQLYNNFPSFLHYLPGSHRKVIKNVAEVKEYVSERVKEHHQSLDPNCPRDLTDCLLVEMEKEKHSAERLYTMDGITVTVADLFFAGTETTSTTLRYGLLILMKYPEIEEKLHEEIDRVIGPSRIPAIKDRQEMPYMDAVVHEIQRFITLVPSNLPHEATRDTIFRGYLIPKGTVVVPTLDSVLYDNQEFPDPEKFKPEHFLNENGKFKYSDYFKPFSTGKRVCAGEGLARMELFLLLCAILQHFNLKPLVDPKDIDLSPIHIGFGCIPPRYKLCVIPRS

CYP2C8 [16] = target: T7, CYP2C8 (Homo sapiens, UniProt P10632); assay: CYP inhibition in human liver microsomes; type: in vitro ADME
T7 construct: In vitro studies in human liver microsomes; from tissue; host or cells: human liver microsomes
T7 sequence (P10632 whole entry): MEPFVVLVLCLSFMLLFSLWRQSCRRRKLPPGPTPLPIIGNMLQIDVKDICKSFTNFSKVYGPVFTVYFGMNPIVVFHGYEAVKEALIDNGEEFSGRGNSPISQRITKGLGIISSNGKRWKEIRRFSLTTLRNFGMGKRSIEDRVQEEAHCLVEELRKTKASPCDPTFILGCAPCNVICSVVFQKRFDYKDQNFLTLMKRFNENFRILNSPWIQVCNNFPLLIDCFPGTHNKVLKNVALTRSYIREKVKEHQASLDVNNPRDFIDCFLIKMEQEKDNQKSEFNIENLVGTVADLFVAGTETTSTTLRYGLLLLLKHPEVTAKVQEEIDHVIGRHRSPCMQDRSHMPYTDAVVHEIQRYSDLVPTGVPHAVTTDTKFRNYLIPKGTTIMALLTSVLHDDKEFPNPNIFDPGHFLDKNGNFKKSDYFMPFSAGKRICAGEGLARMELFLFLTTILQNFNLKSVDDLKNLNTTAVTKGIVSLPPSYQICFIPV

CYP2D6 = target: T8, CYP2D6 (Homo sapiens, UniProt P10635); assay: CYP inhibition in human liver microsomes; type: in vitro ADME
T8 construct: In vitro studies in human liver microsomes; from tissue; host or cells: human liver microsomes
T8 sequence (P10635 whole entry): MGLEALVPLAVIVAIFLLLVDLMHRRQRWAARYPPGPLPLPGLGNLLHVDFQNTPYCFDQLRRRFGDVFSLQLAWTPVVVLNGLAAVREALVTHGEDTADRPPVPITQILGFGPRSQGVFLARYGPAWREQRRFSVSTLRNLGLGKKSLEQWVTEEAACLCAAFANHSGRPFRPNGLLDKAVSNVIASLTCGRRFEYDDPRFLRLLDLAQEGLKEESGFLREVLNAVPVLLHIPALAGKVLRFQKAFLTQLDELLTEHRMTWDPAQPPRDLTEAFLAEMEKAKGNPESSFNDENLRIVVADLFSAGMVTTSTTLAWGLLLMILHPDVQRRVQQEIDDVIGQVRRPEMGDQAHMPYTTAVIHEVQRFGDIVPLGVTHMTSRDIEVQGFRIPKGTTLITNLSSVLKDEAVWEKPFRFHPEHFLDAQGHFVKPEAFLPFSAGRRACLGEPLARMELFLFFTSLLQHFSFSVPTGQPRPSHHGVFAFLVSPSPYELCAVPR

[17] = tested on: complicated skin and skin structure infections (cSSSI); assay: Phase 3 cSSSI Study 2; type: in vivo, human; settings: versus vancomycin/aztreonam
Procedure: A total of 1396 adults with clinically documented complicated skin and skin structure infections (cSSSI) were enrolled in two randomized, multi-center, multinational, double-blind, studies comparing 600 mg ceftaroline fosamil administered intravenously over 1 hour every 12 hours to vancomycin plus aztreonam [1 g vancomycin administered intravenously over 1 hour followed by 1 g aztreonam administered intravenously over 1 hour every 12 hours]. Patients with cSSSI (deep/extensive cellulitis, a major abscess, a wound infection [surgical or traumatic], infected insect bites, burns or ulcers, lower extremity infection in patients with diabetes mellitus or peripheral vascular disease), were enrolled in the studies. Treatment duration was 5 to 14 days. A switch to oral therapy was not allowed. The Modified Intent-to-Treat (MITT) population included all patients who received any amount of study drug according to their randomized treatment group.
The primary efficacy endpoint was clinical response at the Test of Cure (TOC) visit in the co-primary CE and MITT populations (Table 2). […] In a subgroup analysis (CE population), the comparative clinical cure rates between the ceftaroline group and the vancomycin plus aztreonam group were not affected by age, gender, race, ethnicity, or weight.

CYP2B6 [18] = target: T9, CYP2B6 (Homo sapiens, UniProt P20813); assay: CYP inhibition in human liver microsomes; type: in vitro ADME
T9 construct: In vitro studies in human liver microsomes; from tissue; host or cells: human liver microsomes
T9 sequence (P20813 whole entry): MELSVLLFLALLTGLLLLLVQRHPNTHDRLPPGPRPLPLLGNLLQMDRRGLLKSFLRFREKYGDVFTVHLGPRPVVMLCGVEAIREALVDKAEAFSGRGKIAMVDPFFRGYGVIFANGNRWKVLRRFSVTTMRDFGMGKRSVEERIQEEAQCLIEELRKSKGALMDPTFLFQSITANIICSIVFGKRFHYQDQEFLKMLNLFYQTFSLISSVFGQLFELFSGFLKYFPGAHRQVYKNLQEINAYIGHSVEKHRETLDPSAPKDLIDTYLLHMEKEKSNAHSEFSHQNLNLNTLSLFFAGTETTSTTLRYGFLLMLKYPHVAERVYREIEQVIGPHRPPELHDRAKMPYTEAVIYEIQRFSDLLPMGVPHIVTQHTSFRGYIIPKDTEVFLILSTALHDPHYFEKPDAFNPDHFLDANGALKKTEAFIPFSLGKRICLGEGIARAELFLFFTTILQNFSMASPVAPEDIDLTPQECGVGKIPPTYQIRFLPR

[19] = Safety, four pooled controlled comparative Phase 3 studies (two cSSSI, two CABP); type: in vivo, human; settings: pooled Phase 3 studies
Procedure: Ceftaroline fosamil was evaluated in four controlled comparative Phase 3 clinical studies (two in cSSSI and two in CABP).

[20] = Safety population, listed as ceftriaxone

In the case of CCO/N=C(\C(=O)N[C@H](C(=O)[O-])[C@@H]1NC(C(=O)[O-])=C(Sc2nc(-c3cc[n+](C)cc3)cs2)CS1)c1nsc(N)n1.[H+] [ceftaroline M-1], the “induction of CYP2C9” value (CYP2C9 [1]) is reported as “not inducers”, the “induction of CYP2C19” value (CYP2C19 [2]) is reported as “not inducers” and the “induction of CYP3A4/5” value (CYP3A4/5) is reported as “not inducers”. For the same compound, the “induction of CYP2B6” value (CYP2B6 [3]) was “not inducers”, the “induction of CYP2C8” value (CYP2C8 [4]) was “not inducers” and the “induction of CYP1A2” value (CYP1A2 [5]) was “not inducers”.
With CO/N=C(\C(=O)N[C@@H]1C(=O)N2C(C(=O)O)=C(CSc3nc(=O)c(=O)[nH]n3C)CS[C@H]12)c1csc(N)n1 [Ceftriaxone, reference compound] the “Per-subject Clinical Cure Rate at the EOT Visit” value ([6]; MITTE population, Example 4) was 215 (78.8) %, the “Favorable Microbiological Outcome at the TOC Visit” value ([6]; mMITTE population, Example 4) was 72 (81.8) % and the “TEAEs leading to premature discontinuation from study drug administration” value [7] was 1.3%. The “any study-drug-related TEAEs, subjects” value [7] was 13.7%, the “study-drug-related TEAE: headache” value [7] was 1.0% and the “Early withdrawal from study, reason Adverse Event” value ([7]; MITTE population) was 7 (2.6) %. For the same compound, the “Any AE (TEAE), subjects” value ([7]; Safety population) was 145 (47.2) %, the “COPD, subjects” value ([7]; Safety population) was 5 (1.6) % and the “Diarrhea, subjects” value ([7]; Safety population) was 9 (2.9) %. For the same compound, the “Headache, subjects” value ([7]; Safety population) was 5 (1.6) %, the “Hypertension, subjects” value ([7]; Safety population) was 8 (2.6) % and the “Hypokalemia, subjects” value ([7]; Safety population) was 5 (1.6) %. The “Insomnia, subjects” value ([7]; Safety population) was 8 (2.6) %, the “Nausea, subjects” value ([7]; Safety population) was 6 (2.0) % and the “Phlebitis, subjects” value ([7]; Safety population) was 8 (2.6) %. The “Pleural effusion, subjects” value ([7]; Safety population) was 7 (2.3) %, the “Pneumonia, subjects” value ([7]; Safety population) was 4 (1.3) % and the “Any AE (TEAE), subjects” value [7, 20] was 47.2%. For the same compound, the “Clinical Cure Rate by Infecting Pathogen” value [8] was 15/17 (88.2%), the “TEAEs leading to premature discontinuation from study drug administration” value [9] was 3.9% and the “subjects with SAEs considered possibly or probably related to study drug” value [9] was 5 subjects. The “Early withdrawal from study, reason Adverse Event” value ([9]; MITTE population) was 7 (2.3) %, the “Any AE (TEAE), subjects” value ([9]; Safety population) was 136 (44.2) % and the “Constipation, subjects” value ([9]; Safety population) was 5 (1.6) %. For the same compound, the “Diarrhea, subjects” value ([9]; Safety population) was 7 (2.3) %, the “Headache, subjects” value ([9]; Safety population) was 4 (1.3) % and the “Hypertension, subjects” value ([9]; Safety population) was 8 (2.6) %. For the same compound, the “Hypokalemia, subjects” value ([9]; Safety population) was 10 (3.2) %, the “Insomnia, subjects” value ([9]; Safety population) was 6 (1.9) % and the “Nausea, subjects” value ([9]; Safety population) was 8 (2.6) %. The “Phlebitis, subjects” value ([9]; Safety population) was 5 (1.6) %, the “Any AE (TEAE), subjects” value [9, 20] was 44.2% and the “Diarrhea, subjects” value [9, 20] was 2.3%. For the same compound, the “Headache, subjects” value [9, 20] was 1.3%.
With CCO/N=C(\C(=O)N[C@@H]1C(=O)N2C(C(=O)[O-])=C(Sc3nc(-c4cc[n+](C)cc4)cs3)CS[C@H]12)c1nsc(NP(=O)(O)O)n1 [Ceftaroline fosamil, (6R,7R)-7-{(2Z)-2-(ethoxyimino)-2-[5-(phosphonoamino)-1,2,4-thiadiazol-3-yl]acetamido}-3-{[4-(1-methylpyridin-1-ium-4-yl)-1,3-thiazol-2-yl]sulfanyl}-8-oxo-5-thia-1-azabicyclo[4.2.0]oct-2-ene-2-carboxylate] the “conversion of prodrug in plasma” value [10] was “rapidly converted into bioactive ceftaroline in plasma”, the “Treatment Difference in clinical cure rate at TOC” value (“Treatment Difference … at TOC” for short) ([6]; CE) was 4.9 (−2.5, 12.5) % and the “Treatment Difference … at TOC” value ([6]; MITTE) was 5.9 (−1.0, 12.7) %. For the same compound, the “inhibition of CYP3A4” value (CYP3A4) was “neither ceftaroline fosamil nor ceftaroline inhibits”, the “induction of CYP2C9” value (CYP2C9 [1]) was “not inducers” and the “inhibition of CYP1A1” value (CYP1A1) was “neither ceftaroline fosamil nor ceftaroline inhibits”. The “induction of CYP2C19” value (CYP2C19 [2]) was “not inducers”, the “induction of CYP3A4/5” value (CYP3A4/5) was “not inducers” and the “Treatment Difference … at TOC” value ([11]; CE) was 6.7 (1.6, 11.8) %. The “Treatment Difference … at TOC” value ([11]; MITTE) was 6.0 (1.4, 10.7) %, the “Treatment Difference … at TOC” value ([12]; CE) was 8.4 (1.4, 15.4) % and the “Treatment Difference … at TOC” value ([12]; MITTE) was 6.2 (−0.2, 12.6) %. The “inhibition of CYP2C9” value (CYP2C9 [13]) was “neither ceftaroline fosamil nor ceftaroline inhibits”, the “inhibition of CYP1A2” value (CYP1A2 [14]) was “neither ceftaroline fosamil nor ceftaroline inhibits” and the solubility (Aqueous solubility) was “more than 200 mg per ml”. The “induction of CYP2B6” value (CYP2B6 [3]) was “not inducers”, the “inhibition of CYP2A6” value (CYP2A6) was “neither ceftaroline fosamil nor ceftaroline inhibits” and the “inhibition of CYP2C19” value (CYP2C19 [15]) was “neither ceftaroline fosamil nor ceftaroline inhibits”. For the same compound, the “inhibition of CYP2E1” value (CYP2E1) was “neither ceftaroline fosamil nor ceftaroline inhibits”, the “induction of CYP2C8” value (CYP2C8 [4]) was “not inducers” and the “inhibition of CYP2C8” value (CYP2C8 [16]) was “neither ceftaroline fosamil nor ceftaroline inhibits”. The “inhibition of CYP2D6” value (CYP2D6) was “neither ceftaroline fosamil nor ceftaroline inhibits”, the “Clinical Cure Rate by Infecting Pathogen” value [8] was 16/16 (100%) and the “induction of CYP1A2” value (CYP1A2 [5]) was “not inducers”. The “Treatment Difference (2-sided 95% CI)” value ([17]; CE) was 0.1 (−4.4., 4.5), the “Treatment Difference (2-sided 95% CI)” value ([17]; MITT) was −0.4 (−5.8, 5.0) and the “inhibition of CYP2B6” value (CYP2B6 [18]) was “neither ceftaroline fosamil nor ceftaroline inhibits”. For the same compound, the “highest incidence of any adverse reaction” value [19] was at most 5% and the “hypersensitivity leading to discontinuation” value [19] was 0.3%.

Source: patent US9629861B2, “Compositions and methods for treating bacterial infections using ceftaroline” (Forest Laboratories Holdings Limited, priority 2009, dated 2017)
